# From EP4650353A1 (Shanghai Institute of Materia Medica, Chinese Academy of …, priority 2023, dated 2024)
# pEC50: −log10 of the molar value.
# Biological target: T1, human GLP-1 receptor (Homo sapiens, UniProt P43220)
# T1 construct: HA (N); expressed in transfected cells
# Test: GLP-1 receptor-mediated agonist activity: cAMP level in hGLP-1R/HEK293 cell line (HTRF)
# Format: cell-based
# Settings: cAMP levels in hGLP-1R/HEK293 cell line; Table 1; read-out: determined EC50
# T1 sequence (P43220 24-463): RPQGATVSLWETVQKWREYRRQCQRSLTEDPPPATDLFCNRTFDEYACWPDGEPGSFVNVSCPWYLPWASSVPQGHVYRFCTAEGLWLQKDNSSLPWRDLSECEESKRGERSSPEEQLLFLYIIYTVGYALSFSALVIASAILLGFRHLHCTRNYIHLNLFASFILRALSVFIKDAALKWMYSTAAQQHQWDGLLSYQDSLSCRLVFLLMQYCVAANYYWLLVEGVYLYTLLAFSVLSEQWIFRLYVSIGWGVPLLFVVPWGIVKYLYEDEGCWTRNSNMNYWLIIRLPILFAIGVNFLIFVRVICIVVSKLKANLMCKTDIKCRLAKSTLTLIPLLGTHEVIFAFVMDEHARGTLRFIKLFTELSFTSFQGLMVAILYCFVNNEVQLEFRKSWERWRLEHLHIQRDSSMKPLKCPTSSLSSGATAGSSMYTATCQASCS
row,Compound,pEC50
1,"CCOc1cc(C(=O)O)cc2c1nc(CN1CCC(c3cccc4c3OC(C)(c3ccc(Cl)cc3OC)O4)CC1)n2C[C@@H]1CCO1 (stereo partly drawn) [Compound 58, 2-((4-(2-(4-chloro-2-methoxyphenyl)-2-methylbenzo[d][1,3]dioxol-4-yl)piperidin-1-yl)methyl)-4-ethoxy-1-(((S)-oxetan-2-yl)methyl)-1H-benzo[d]imidazole-6-carboxylic acid]",11.66
2,"COc1cc(Cl)ccc1C1(C)Oc2cccc(C3CCN(Cc4nc5c(OC)cc(C(=O)O)cc5n4C[C@@H]4CCO4)CC3)c2O1 (stereo partly drawn) [Compound 57, 2-((4-(2-(4-chloro-2-methoxyphenyl)-2-methylbenzo[d][1,3]dioxol-4-yl)piperidin-1-yl)methyl)-4-methoxy-1-(((S)-oxetan-2-yl)methyl)-1H-benzo[d]imidazole-6-carboxylic acid]",11.55
3,"N#Cc1ccc(COc2cccc(N3C=NN(Cc4nc5c(OC6CC6)cc(C(=O)O)cc5n4C[C@@H]4CCO4)CC3)n2)c(F)c1 [Compound 13, (S)-2-((4-(6-((4-cyano-2-fluorobenzyl)oxy)pyridin-2-yl)-5,6-dihydro-1,2,4-triazin-1(4H)-yl)methyl)-4-cyclopropyloxy-1-(oxetan-2-ylmethyl)-1H-benzo[d]imidazole-6-carboxylic acid]",11.66
4,"COc1cc(C(=O)O)cc2c1nc(CN1CCC(c3ccccc3OCc3ccc(Cl)c4c3OCC4)CC1)n2C[C@@H]1CCO1 [Compound 45, (S)-2-((4-(2-((4-chloro-2,3-dihydrobenzofuran-7-yl)methoxy)phenyl)piperidin-1-yl)methyl)-4-methoxy-1-(oxetan-2-ylmethyl)-1H-benzo[d]imidazole-6-carboxylic acid]",10.29
5,"COc1cc(C(=O)O)cc2c1nc(CN1CCC(c3cccc(OCc4ccc(C#N)c5c4OCC5)c3)CC1)n2C[C@@H]1CCO1 [Compound 43, (S)-2-((4-(3-((4-cyano-2,3-dihydrobenzofuran-7-yl)methoxy)phenyl)piperidin-1-yl)methyl)-4-methoxy-1-(oxetan-2-ylmethyl)-1H-benzo[d]imidazole-6-carboxylic acid]",10.47
6,"CCOc1cc(C(=O)O)cc2c1nc(CN1CCC(c3cccnc3OCc3ccc(C#N)cc3F)CC1)n2C[C@@H]1CCO1 [Compound 33, (S)-2-((4-(2-((4-cyano-2-fluorobenzyl)oxy)pyridin-3-yl)piperidin-1-yl)methyl)-4-ethoxy-1-(oxetan-2-ylmethyl)-1H-benzo[d]imidazole-6-carboxylic acid]",10.33
7,"COc1cc(C#N)ccc1COc1cccc(C2CCN(Cc3nc4c(OC)cc(C(=O)O)cc4n3C[C@@H]3CCO3)CC2)c1 [Compound 42, (S)-2-((4-(3-((4-cyano-2-methoxybenzyl)oxy)phenyl)piperidin-1-yl)methyl)-4-methoxy-1-(oxetan-2-ylmethyl)-1H-benzo[d]imidazole-6-carboxylic acid]",10.53
8,"CCCOc1cc(C(=O)O)cc2c1nc(CN1CCN(c3cccc(OCc4ccc(C#N)cc4F)n3)C=N1)n2C[C@@H]1CCO1 [Compound 10, (S)-2-((4-(6-((4-cyano-2-fluorobenzyl)oxy)pyridin-2-yl)-5,6-dihydro-1,2,4-triazin-1(4H)-yl)methyl)-1-(oxetan-2-ylmethyl)-4-propoxy-1H-benzo[d]imidazole-6-carboxylic acid]",11.31
9,"4-methoxy-2-((4-(2-(2-methoxy-4-(trifluoromethyl)phenyl)-2-methylbenzo[d][1,3]dioxol-4-yl)piperidin-1-yl)methyl)-1-((S)-oxetan-2-yl)methyl]-1H-benzo[d]imidazole-6-carboxylic acid [Compound 59]",11.51
10,"COc1cc(C(=O)O)cc2c1nc(CN1CCN(c3cccc(OCc4ccc(C(F)(F)F)cc4F)n3)C=N1)n2C[C@@H]1CCO1 [Compound 22, (S)-2-((4-(6-((2-fluoro-4-(trifluoromethyl)benzyl)oxy)pyridin-2-yl)-5,6-dihydro-1,2,4-triazin-1(4H)-yl)methyl)-4-methoxy-1-(oxetan-2-ylmethyl)-1H-benzo[d]imidazole-6-carboxylic acid]",11.07
11,"[2H]C([2H])([2H])Oc1cc(C(=O)O)cc2c1nc(CN1CCN(c3cccc(OCc4ccc(C#N)cc4F)n3)C=N1)n2C[C@@H]1CCO1 [Compound 12, (S)-2-((4-(6-((4-cyano-2-fluorobenzyl)oxy)pyridin-2-yl)-5,6-dihydro-1,2,4-triazin-1(4H)-yl)methyl)-4-(methoxy-d3)-1-(oxetan-2-ylmethyl)-1H-benzo[d]imidazole-6-carboxylic acid]",11.40
12,"COc1cc(C(=O)O)cc2c1nc(CN1CCN(c3cccc4c3OC(C)(c3ccc(C(F)(F)F)cn3)O4)C=N1)n2C[C@@H]1CCO1 (stereo partly drawn) [Compound 65, 4-methoxy-2-((4-(2-methyl-2-(5-(trifluoromethyl)pyridin-2-yl)benzo[d][1,3]dioxol-4-yl)-5,6-dihydro-1,2,4-triazin-1(4H)-yl)methyl)-1-(((S)-oxetan-2-yl)methyl)-1H-benzo[d]imidazole-6-carboxylic acid]",10.31
13,"COc1cc(C(=O)O)cc2c1nc(CN1CCC(c3cccc(OCc4ccc(C#N)cc4F)n3)CC1)n2C[C@@H]1CCO1 [Compound 1, (S)-2-((4-(6-((4-cyano-2-fluorobenzyl)oxy)pyridin-2-yl)piperidin-1-yl)methyl)-4-methoxy-1-(oxetan-2-ylmethyl)-1H-benzo[d]imidazole-6-carboxylic acid]",11.32
14,"[2H]C([2H])([2H])Oc1cc(C(=O)O)cc2c1nc(CN1CCN(c3cccc(OCc4ccc(Cl)cc4F)n3)C=N1)n2C[C@@H]1CCO1 [Compound 26, (S)-2-((4-(6-((4-chloro-2-fluorobenzyl)oxy)pyridin-2-yl)-5,6-dihydro-1,2,4-triazin-1(4H)-yl)methyl)-4-(methoxy-d3)-1-(oxetan-2-ylmethyl)-1H-benzo[d]imidazole-6-carboxylic acid]",11.03
15,"COc1cc(C(=O)O)cc2c1nc(CN1CCC(c3cccc4c3OC(C)(c3ccc(C(F)(F)F)cc3F)O4)CC1)n2C[C@@H]1CCO1 (stereo partly drawn) [Compound 53, 2-((4-(2-(2-fluoro-4-(trifluoromethyl)phenyl)-2-methylbenzo[d][1,3]dioxol-4-yl)piperidin-1-yl)methyl)-4-methoxy-1-(((S)-oxetan-2-yl)methyl)-1H-benzo[d]imidazole-6-carboxylic acid]",11.03
16,"COc1cc(C(=O)O)cc2c1nc(CN1CCC(c3cccc(OCc4ccc(C#N)c5c4OCC5)n3)CC1)n2C[C@@H]1CCO1 [Compound 15, (S)-2-((4-(6-((4-cyano-2,3-dihydrobenzofuran-7-yl)methoxy)pyridin-2-yl)piperidin-1-yl)methyl)-4-methoxy-1-(oxetan-2-ylmethyl)-1H-benzo[d]imidazole-6-carboxylic acid]",11.72

# Now from value to compound:
row,pEC50,Compound
1,11.21,"CCOc1cc(C(=O)O)cc2c1nc(CN1CCN(c3cccc4c3OC(C)(c3ccc(C(F)(F)F)cc3OC)O4)C=N1)n2C[C@@H]1CCO1 (stereo partly drawn) [Compound 90, 4-ethoxy-2-((4-(2-(2-methoxy-4-(trifluoromethyl)phenyl)-2-methylbenzo[d][1,3]dioxol-4-yl)-5,6-dihydro-1,2,4-triazin-1(4H)-yl)methyl)-1-(((S)-oxetan-2-yl)methyl)-1H-benzo[d]imidazole-6-carboxylic acid]"
2,11.52,"[2H]C([2H])([2H])C([2H])([2H])Oc1cc(C(=O)O)cc2c1nc(CN1CCC(c3cccc4c3OC(C)(c3ccc(Cl)cc3F)O4)CC1)n2C[C@@H]1CCO1 (stereo partly drawn) [Compound 75, 2-((4-(2-(4-chloro-2-fluorophenyl)-2-methylbenzo[d][1,3]dioxol-4-yl)piperidin-1-yl)methyl)-4-(ethoxy-d5)-1-(((S)-oxetan-2-yl)methyl)-1H-benzo[d]imidazole-6-carboxylic acid]"
3,9.22,"[2H]C([2H])([2H])C([2H])([2H])Oc1cc(C(=O)O)cc2c1nc(CN1CCN(c3cccc4c3O[C@](C)(c3ccc(Cl)cc3F)O4)C=N1)n2C[C@@H]1CCO1 [Compound 76-2, 2-((4-((R)-2-(4-chloro-2-fluorophenyl)-2-methylbenzo[d][1,3]dioxol-4-yl)-5,6-dihydro-1,2,4-triazin-1(4H)-yl)methyl)-4-(ethoxy-d5)-1-(((S)-oxetan-2-yl)methyl)-1H-benzo[d]imidazole-6-carboxylic acid]"
4,10.94,"CCOc1cc(C(=O)O)cc2c1nc(CN1CCN(c3cccc4c3OC(C)(c3ccc(Cl)c(F)c3F)O4)C=N1)n2C[C@@H]1CCO1 (stereo partly drawn) [Compound 78, 2-((4-(2-(4-chloro-2,3-difluorophenyl)-2-methylbenzo[d][1,3]dioxol-4-yl)-5,6-dihydro-1,2,4-triazin-1(4H)-yl)methyl)-4-ethoxy-1-(((S)-oxetan-2-yl)methyl)-1H-benzo[d]imidazole-6-carboxylic acid]"
5,10.78,"[2H]C([2H])([2H])C([2H])([2H])Oc1cc(C(=O)O)cc2c1nc(CN1CCN(c3cccc4c3OC(C)(c3ccc(Cl)c(F)c3F)O4)C=N1)n2C[C@@H]1CCO1 (stereo partly drawn) [Compound 77, 2-((4-(2-(4-chloro-2,3-difluorophenyl)-2-methylbenzo[d][1,3]dioxol-4-yl)-5,6-dihydro-1,2,4-triazin-1(4H)-yl)methyl)-4-(ethoxy-d5)-1-(((S)-oxetan-2-yl)methyl)-1H-benzo[d]imidazole-6-carboxylic acid]"
6,10.95,"CCOc1cc(C(=O)O)cc2c1nc(CN1CCN(c3cccc4c3OC(C)(c3ccc(Cl)cn3)O4)C=N1)n2C[C@@H]1CCO1 (stereo partly drawn) [Compound 69, 2-((4-(2-(5-chloropyridin-2-yl)-2-methylbenzo[d][1,3]dioxol-4-yl)-5,6-dihydro-1,2,4-triazin-1(4H)-yl)methyl)-4-ethoxy-1-(((S)-oxetan-2-yl)methyl)-1H-benzo[d]imidazole-6-carboxylic acid]"
7,10.54,"CCOc1cc(C(=O)O)cc2c1nc(CN1CCN(c3cccc4c3OC(C)(c3ccc(F)cc3F)O4)C=N1)n2C[C@@H]1CCO1 (stereo partly drawn) [Compound 86, 2-((4-(2-(2,4-difluorophenyl)-2-methylbenzo[d][1,3]dioxol-4-yl)-5,6-dihydro-1,2,4-triazin-1(4H)-yl)methyl)-4-ethoxy-1-(((S)-oxetan-2-yl)methyl)-1H-benzo[d]imidazole-6-carboxylic acid]"
